Test results taken from ChEMBL document CHEMBL2412979, “2-(2-Methylfuran-3-carboxamido)-3-phenylpropanoic acid, a potential CYP26A1 inhibitor to enhance all-trans retinoic acid-induced leukemia cell differentiation based on virtual screening and biological evaluation” (Bioorg Med Chem, 2013).

Key:
NB-4 [1] = test: Potentiation of ATRA-induced human NB4 cell growth inhibition at 1 uM after 96 hrs by hemocytometry (reference value: 32.42 +/- 3.98%); format: functional; conditions: NB-4, 96 h, read-out: GI
NB-4 [2] = test: Cytotoxicity against human NB4 cells assessed as growth inhibition at 5 uM after 96 hrs by hemocytometry relative to control; format: functional; conditions: NB-4, 96 h, read-out: GI
NB-4 [3] = test: Potentiation of ATRA-induced human NB4 cell differentiation at 10 uM after 96 hrs by nitroblue tetrazolium assay (reference value: 29.44 +/- 2.03%); format: functional
NB-4 [4] = test: Cytotoxicity against human NB4 cells assessed as growth inhibition at 0.5 uM after 96 hrs by hemocytometry relative to control; format: functional; conditions: NB-4, 96 h, read-out: GI
NB-4 [5] = test: Cytotoxicity against human NB4 cells assessed as growth inhibition at 1 uM after 96 hrs by hemocytometry relative to control; format: functional; conditions: NB-4, 96 h, read-out: GI
NB-4 [6] = test: Potentiation of ATRA-induced human NB4 cell differentiation at 5 uM after 96 hrs by nitroblue tetrazolium assay (reference value: 29.44 +/- 2.03%); format: functional
NB-4 [7] = test: Induction of human NB4 cell differentiation at 0.5 to 10 uM after 96 hrs by nitroblue tetrazolium assay relative to control; format: functional
Cytochrome P450 26A1 = biological target: T1, Cytochrome P450 26A1 (Homo sapiens, UniProt O43174); test: Inhibition of CYP26A1 in human NB4 cells assessed as ATRA level in medium at 5 uM after 12 hrs by LC-MS/MS analysis (reference value: 27.05 +/- 1.34 ng/ml); format: cell-based; conditions: nb-4, 12 h
T1 sequence (O43174 whole entry): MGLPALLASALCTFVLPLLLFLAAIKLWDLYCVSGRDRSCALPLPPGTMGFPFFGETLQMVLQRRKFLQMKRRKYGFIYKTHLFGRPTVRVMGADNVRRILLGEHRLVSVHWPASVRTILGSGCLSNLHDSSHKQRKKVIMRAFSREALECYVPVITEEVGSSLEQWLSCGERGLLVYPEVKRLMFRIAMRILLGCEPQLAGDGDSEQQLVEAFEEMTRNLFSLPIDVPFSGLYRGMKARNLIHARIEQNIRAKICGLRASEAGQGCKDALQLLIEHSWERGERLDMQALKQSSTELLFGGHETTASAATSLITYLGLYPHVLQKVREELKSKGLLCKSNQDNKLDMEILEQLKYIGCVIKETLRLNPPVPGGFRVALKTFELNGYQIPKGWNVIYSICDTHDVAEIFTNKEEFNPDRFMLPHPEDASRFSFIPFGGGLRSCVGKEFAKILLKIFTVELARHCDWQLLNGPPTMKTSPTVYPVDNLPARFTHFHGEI

NB-4 [8] = test: Potentiation of ATRA-induced human NB4 cell differentiation at 1 uM after 96 hrs by nitroblue tetrazolium assay (reference value: 29.93 +/- 0.73%); format: functional
NB-4 [9] = test: Potentiation of ATRA-induced human NB4 cell growth inhibition at 0.5 uM after 96 hrs by hemocytometry (reference value: 32.42 +/- 3.98%); format: functional; conditions: NB-4, 96 h, read-out: GI
NB-4 [10] = test: Potentiation of ATRA-induced human NB4 cell differentiation at 0.5 uM after 96 hrs by nitroblue tetrazolium assay (reference value: 29.93 +/- 0.73%); format: functional
NB-4 [11] = test: Potentiation of ATRA-induced human NB4 cell growth inhibition at 10 uM after 96 hrs by hemocytometry (reference value: 32.70 +/- 2.25%); format: functional; conditions: NB-4, 96 h, read-out: GI
NB-4 [12] = test: Cytotoxicity against human NB4 cells assessed as growth inhibition at 10 uM after 96 hrs by hemocytometry relative to control; format: functional; conditions: NB-4, 96 h, read-out: GI
NB-4 [13] = test: Potentiation of ATRA-induced human NB4 cell growth inhibition at 5 uM after 96 hrs by hemocytometry (reference value: 32.70 +/- 2.25%); format: functional; conditions: NB-4, 96 h, read-out: GI

Activity (Cytochrome P450 26A1) | Structure (SMILES) | inhibition of growth at 1 µM (NB-4 [1]) | inhibition of growth at 5 µM (NB-4 [2]) | Activity (NB-4 [3]) | inhibition of growth at 0.5 µM (NB-4 [4]) | inhibition of growth at 1 µM (NB-4 [5]) | Activity (NB-4 [6]) | Activity (NB-4 [7]) | Activity (NB-4 [8]) | inhibition of growth at 0.5 µM (NB-4 [9]) | Activity (NB-4 [10]) | inhibition of growth at 10 µM (NB-4 [11]) | inhibition of growth at 10 µM (NB-4 [12]) | inhibition of growth at 5 µM (NB-4 [13])
39.78 ng/mL | Clc1cccc(C(c2ccc3[nH]cnc3c2)n2ccnc2)c1 (centres undefined) [LIAROZOLE] | 46% | 32.7% | 34.9% | 14.5% | 23.1% | 33.53% | 0% | 38.22% | 49.6% | 42.86% | 56.3% | 40.9% | 55.3%
– | Cc1cccc(-c2nc3cc(/N=C/c4c(C)cc(O)cc4O)ccc3o2)c1 | 48.5% | 37.1% | 45.38% | 25.8% | 22.6% | 36.43% | 0% | 27.65% | 50.1% | 29.21% | 79% | 48.5% | 64.3%
– | COc1ccc(/C=C/C(=O)Nc2sc3c(c2C(=O)O)CCC3)cc1 | – | 0.49% | 31.42% | – | – | 30.05% | 0% | – | – | – | 34.9% | 1.22% | 31.5%
33.9 ng/mL | Cc1oc(C(C)(C)C)cc1C(=O)NC(Cc1ccccc1)C(=O)O (centres undefined) | 47.1% | 7.7% | 42.64% | 12.8% | 17.8% | 45.16% | 0% | 38% | 50.6% | 39.58% | 47.1% | 8.05% | 40.2%
– | Cc1cc(O)nc(SCC(=O)c2ccc(O)c(O)c2)n1 | 51.7% | 12.2% | 39.43% | 19.3% | 18.7% | 41.32% | 0% | 32.57% | 50.3% | 33.19% | 53.5% | 12.8% | 53.4%
– | O=C(O)c1ccc(COc2ccc(/C=C3\SC(=O)N(c4cccc(Cl)c4)C3=O)cc2)cc1 | 53.7% | 11% | 41.85% | 18.6% | 18% | 38.42% | 0% | 35.4% | 44.1% | 31.47% | 41.1% | 9.07% | 43.8%
